# In PubChem BioAssay (NCI):
#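 Tested at 5 concentrations; 48 h exposure; 96-well plates; endpoints linearly interpolated, else capped at highest concentration. Abbreviation: GI50, concentration required for 50% inhibition of growth. TGI: total growth inhibition.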
# Assays:
# Assay in all cases: inhibition of tumour cell growth, NCI panel, 48 h
# 786-0 renal = tested on: 786-0 renal
# A498 renal = tested on: A498 renal
# A549 NSCLC = tested on: A549 NSCLC
# ACHN renal = tested on: ACHN renal
# BT-549 breast = tested on: BT-549 breast
# CCRF-CEM leukemia = tested on: CCRF-CEM leukemia
# COLO 205 colon = tested on: COLO 205 colon
# DU-145 prostate = tested on: DU-145 prostate
# EKVX NSCLC = tested on: EKVX NSCLC
# HCC-2998 colon = tested on: HCC-2998 colon
# HCT-15 colon = tested on: HCT-15 colon
# HL-60(TB) leukemia = tested on: HL-60(TB) leukemia
# HOP-62 NSCLC = tested on: HOP-62 NSCLC
# HOP-92 NSCLC = tested on: HOP-92 NSCLC
# HS 578T breast = tested on: HS 578T breast
# HT29 colon = tested on: HT29 colon
# IGROV1 ovarian = tested on: IGROV1 ovarian
# K-562 leukemia = tested on: K-562 leukemia
# KM12 colon = tested on: KM12 colon
# LOX IMVI melanoma = tested on: LOX IMVI melanoma
# M14 melanoma = tested on: M14 melanoma
# MALME-3M melanoma = tested on: MALME-3M melanoma
# MCF7 breast = tested on: MCF7 breast
# MDA-MB-231 breast = tested on: MDA-MB-231 breast
# MDA-MB-435 = tested on: MDA-MB-435
# MOLT-4 leukemia = tested on: MOLT-4 leukemia
# NCI-H226 lung = tested on: NCI-H226 lung
# NCI-H23 lung = tested on: NCI-H23 lung
# NCI-H460 lung = tested on: NCI-H460 lung
# NCI-H522 lung = tested on: NCI-H522 lung
# NCI/ADR-RES ovarian = tested on: NCI/ADR-RES ovarian
# OVCAR-3 ovarian = tested on: OVCAR-3 ovarian
# OVCAR-4 ovarian = tested on: OVCAR-4 ovarian
# OVCAR-5 ovarian = tested on: OVCAR-5 ovarian
# OVCAR-8 ovarian = tested on: OVCAR-8 ovarian
# PC-3 prostate = tested on: PC-3 prostate
# RPMI-8226 leukemia = tested on: RPMI-8226 leukemia
# RXF 393 renal = tested on: RXF 393 renal
# SF-268 CNS = tested on: SF-268 CNS
# SF-295 CNS = tested on: SF-295 CNS
# SF-539 CNS = tested on: SF-539 CNS
# SK-MEL-2 melanoma = tested on: SK-MEL-2 melanoma
# SK-MEL-28 melanoma = tested on: SK-MEL-28 melanoma
# SK-MEL-5 melanoma = tested on: SK-MEL-5 melanoma
# SK-OV-3 ovarian = tested on: SK-OV-3 ovarian
# SN12C renal = tested on: SN12C renal
# SNB-19 CNS = tested on: SNB-19 CNS
# SNB-75 CNS = tested on: SNB-75 CNS
# SW-620 colon = tested on: SW-620 colon
# T-47D breast = tested on: T-47D breast
# TK-10 renal = tested on: TK-10 renal
# U251 CNS = tested on: U251 CNS
# UACC-257 melanoma = tested on: UACC-257 melanoma
# UACC-62 melanoma = tested on: UACC-62 melanoma
# UO-31 renal = tested on: UO-31 renal
structure (smiles),measurement,setting,value
CCc1ccc2c(c1)C(=O)c1c-2n(CCCN=[N+]=[N-])c(=O)c2cc(OC)c(OC)cc12,GI50,786-0 renal,40.6 µM
same,TGI,786-0 renal,> 100 µM
same,GI50,A498 renal,25.8 µM
same,TGI,A498 renal,84.5 µM
same,GI50,A549 NSCLC,> 100 µM
same,TGI,A549 NSCLC,> 100 µM
same,GI50,ACHN renal,42.2 µM
same,TGI,ACHN renal,> 100 µM
same,GI50,BT-549 breast,76.5 µM
same,TGI,BT-549 breast,> 100 µM
same,GI50,CCRF-CEM leukemia,> 100 µM
same,TGI,CCRF-CEM leukemia,> 100 µM
same,GI50,COLO 205 colon,> 100 µM
same,TGI,COLO 205 colon,> 100 µM
same,GI50,DU-145 prostate,> 100 µM
same,TGI,DU-145 prostate,> 100 µM
same,GI50,EKVX NSCLC,> 100 µM
same,TGI,EKVX NSCLC,> 100 µM
same,GI50,HCC-2998 colon,> 100 µM
same,TGI,HCC-2998 colon,> 100 µM
same,GI50,HCT-15 colon,> 100 µM
same,TGI,HCT-15 colon,> 100 µM
same,GI50,HL-60(TB) leukemia,> 100 µM
same,TGI,HL-60(TB) leukemia,> 100 µM
same,GI50,HOP-62 NSCLC,56.2 µM
same,TGI,HOP-62 NSCLC,> 100 µM
same,GI50,HOP-92 NSCLC,23.8 µM
same,TGI,HOP-92 NSCLC,94.8 µM
same,GI50,HS 578T breast,89.1 µM
same,TGI,HS 578T breast,> 100 µM
same,GI50,HT29 colon,> 100 µM
same,TGI,HT29 colon,> 100 µM
same,GI50,IGROV1 ovarian,53.4 µM
same,TGI,IGROV1 ovarian,> 100 µM
same,GI50,K-562 leukemia,> 100 µM
same,TGI,K-562 leukemia,> 100 µM
same,GI50,KM12 colon,> 100 µM
same,TGI,KM12 colon,> 100 µM
same,GI50,LOX IMVI melanoma,> 100 µM
same,TGI,LOX IMVI melanoma,> 100 µM
same,GI50,M14 melanoma,> 100 µM
same,TGI,M14 melanoma,> 100 µM
same,GI50,MALME-3M melanoma,> 100 µM
same,TGI,MALME-3M melanoma,> 100 µM
same,GI50,MCF7 breast,91.7 µM
same,TGI,MCF7 breast,> 100 µM
same,GI50,MDA-MB-231 breast,> 100 µM
same,TGI,MDA-MB-231 breast,> 100 µM
same,GI50,MDA-MB-435,> 100 µM
same,TGI,MDA-MB-435,> 100 µM
same,GI50,MOLT-4 leukemia,> 100 µM
same,TGI,MOLT-4 leukemia,> 100 µM
same,GI50,NCI-H226 lung,> 100 µM
same,TGI,NCI-H226 lung,> 100 µM
same,GI50,NCI-H23 lung,> 100 µM
same,TGI,NCI-H23 lung,> 100 µM
same,GI50,NCI-H460 lung,> 100 µM
same,TGI,NCI-H460 lung,> 100 µM
same,GI50,NCI-H522 lung,49 µM
same,TGI,NCI-H522 lung,> 100 µM
same,GI50,NCI/ADR-RES ovarian,> 100 µM
same,TGI,NCI/ADR-RES ovarian,> 100 µM
same,GI50,OVCAR-3 ovarian,> 100 µM
same,TGI,OVCAR-3 ovarian,> 100 µM
same,GI50,OVCAR-4 ovarian,> 100 µM
same,TGI,OVCAR-4 ovarian,> 100 µM
same,GI50,OVCAR-5 ovarian,> 100 µM
same,TGI,OVCAR-5 ovarian,> 100 µM
same,GI50,OVCAR-8 ovarian,> 100 µM
same,TGI,OVCAR-8 ovarian,> 100 µM
same,GI50,PC-3 prostate,> 100 µM
same,TGI,PC-3 prostate,> 100 µM
same,GI50,RPMI-8226 leukemia,> 100 µM
same,TGI,RPMI-8226 leukemia,> 100 µM
same,GI50,RXF 393 renal,29.9 µM
same,TGI,RXF 393 renal,> 100 µM
same,GI50,SF-268 CNS,60.7 µM
same,TGI,SF-268 CNS,> 100 µM
same,GI50,SF-295 CNS,56.1 µM
same,TGI,SF-295 CNS,> 100 µM
same,GI50,SF-539 CNS,57.2 µM
same,TGI,SF-539 CNS,> 100 µM
same,GI50,SK-MEL-2 melanoma,> 100 µM
same,TGI,SK-MEL-2 melanoma,> 100 µM
same,GI50,SK-MEL-28 melanoma,> 100 µM
same,TGI,SK-MEL-28 melanoma,> 100 µM
same,GI50,SK-MEL-5 melanoma,> 100 µM
same,TGI,SK-MEL-5 melanoma,> 100 µM
same,GI50,SK-OV-3 ovarian,> 100 µM
same,TGI,SK-OV-3 ovarian,> 100 µM
same,GI50,SN12C renal,> 100 µM
same,TGI,SN12C renal,> 100 µM
same,GI50,SNB-19 CNS,> 100 µM
same,TGI,SNB-19 CNS,> 100 µM
same,GI50,SNB-75 CNS,> 100 µM
same,TGI,SNB-75 CNS,> 100 µM
same,GI50,SW-620 colon,> 100 µM
same,TGI,SW-620 colon,> 100 µM
same,GI50,T-47D breast,> 100 µM
same,TGI,T-47D breast,> 100 µM
same,GI50,TK-10 renal,44.2 µM
same,TGI,TK-10 renal,> 100 µM
same,GI50,U251 CNS,47.1 µM
same,TGI,U251 CNS,> 100 µM
same,GI50,UACC-257 melanoma,> 100 µM
same,TGI,UACC-257 melanoma,> 100 µM
same,GI50,UACC-62 melanoma,91.9 µM
same,TGI,UACC-62 melanoma,> 100 µM
same,GI50,UO-31 renal,> 100 µM
same,TGI,UO-31 renal,> 100 µM
